Laboratory results as given in patent US20240360091A1, “GLUN2B-SUBUNIT SELECTIVE ANTAGONISTS OF THE N-METHYL-D-ASPARTATE RECEPTORS WITH ENHANCED POTENCY AT ACIDIC PH” (Emory University, priority 2021, published 2024).
Read-outs that look alike come from different tables or passages of the source.

Tests used:
[1] = SAD study NP10679-101, plasma pharmacokinetics; format: in vivo, human
Experimental: Each cohort consisted of 8 subjects.
(±10° C.) until shipment.

5-HT2A = 5-HT2A (Homo sapiens (Human), UniProt P28223); assay: Functional agonism/antagonism, IP1 HTRF in HEK293 cells; format: cell-based
Experimental: These receptor targets include the 5-HT2A receptor, the functional study of which was performed at pH 7.4 (Porter, et al., Br J Pharmacol, 1999, 128:13-20; CEREP, France). […] Separate wells stimulated with 10 μM serotonin served as a positive control. […] The cells were stimulated with 100 nM serotonin.

5-HT1D = 5-HT1D (Homo sapiens (Human), UniProt P28221); assay: Off-target radioligand binding displacement (NIMH PDSP); conditions: pH 7.4
Experimental: (§1) Briefly, the compound was submitted to the NIMH PDSP and screened at a single concentration (10 μM) of test article under equilibrium conditions for ability to displace specific radioligands from binding to their targets expressed in mammalian cell membranes in vitro. Each receptor target was assayed in quadruplicate and the % inhibition of radioligand binding at each target determined at pH 7.4. […]

[2] = Plasma protein binding, rapid equilibrium dialysis, mouse; format: in vitro ADME; conditions: n=2
Experimental: Plasma protein binding was performed with a rapid equilibrium dialysis (RED) device containing dialysis membrane with a molecular weight cut-off of 8,000 Daltons according to the manufacturer's instructions (ThermoFisher, USA). The plasma samples (pH 7.4) and the test compound solution (1 or 5 μM) or reference standards (Warfarin and Propranolol, 10 μM) were combined (DMSO final conc 0.1%). 300 μL of this spiked plasma sample was added to the sample chamber, and 500 μL of blank PBS buffer (pH 7.4) was added into the buffer chamber. The RED device was sealed with adhesive film and then incubated at 37° C. with shaking at 300 rpm for 4 h. Following incubation, an aliquot (50 μL) was removed from each well (spiked plasma and buffer side) and diluted with equal volume of the corresponding opposite matrix (blank buffer or blank plasma) to nullify the matrix effect, and then extracted for analysis by LC-MS/MS. The amount of free material was determined by:
% Free=(LC-MS/MS peak area of test compound in buffer side/LC-MS/MS peak area of test compound in plasma side)×100%

Alpha2C = Alpha2C (Homo sapiens (Human), UniProt P18825); assay: Off-target radioligand binding displacement (NIMH PDSP); conditions: pH 7.4
Experimental: as §1

5-HT2B = 5-HT2B (Homo sapiens (Human), UniProt P41595); assay: biochemical
Experimental: as §1

CYP2D6 = CYP2D6 (Homo sapiens (Human), UniProt P10635); assay: Cytochrome P450 inhibition (Vivid CYP blue screening kit), CYP2D6; format: in vitro ADME; conditions: 1 μM
Experimental: Inhibition of CYP2D6 and CYP3A4 was accomplished using recombinant human isoforms and a Vivid CYP blue screening kit (Invitrogen, USA) by incubating 2-fold serial dilutions (9 samples) of the test compound with kit reagents and reaction buffer according to the manufacturer's methods in a 96-well plate. The plate was then incubated at room temperature for 30 min before fluorescence was measured with a plate reader. For these studies, reference standards ketoconazole (CYP3A4) and quinidine (CYP2D6) were used as controls.

5-HT1B = 5-HT1B (Homo sapiens (Human), UniProt P28222); assay: Off-target radioligand binding displacement (NIMH PDSP); conditions: pH 7.4
Experimental: as §1

[3] = test system: motor coordination of mice on rotarod; assay: Rotarod performance; format: in vivo, mouse; conditions: for rotarod impairment: all four trials
Experimental: The locomotor and rotarod studies were approved by the Georgia State University IACUC, an AAALAC accredited institution under the supervision of licensed veterinarians. Mice were group housed, provided nestlets and shelters with access to food pellets and water ad libitum under a 12-hour light/dark cycle.
For rotarod experiments, male C57BL/6 mice (>90 days old) were tested using a Rotamax 4/8 rotarod (Columbus Instruments, Columbus, Ohio). Prior to training and testing, the mice were brought to the testing room and allowed to acclimate for two hours prior to any further handling. Mice were placed on a rotating rod (5 rpm), 3.8 cm in diameter and 8 cm wide, elevated 30 cm from the floor of a chamber. After 10 sec of rotation at a fixed velocity, the rotation was slowly accelerated from 5 to 35 rpm over a 5 min period. The duration of time that the mouse could stay on the rotarod, without hanging on for a full rotation or without falling, was recorded. Mice were trained 4 times at 25 min inter-trial intervals on each day for two days. On day three, mice were randomly assigned to treatment groups and administered test drug or vehicle (via IP administration) 25 min prior to testing (4 trials with inter-trial interval of 25 min). Individuals performing the experiment were blinded to the identity of each treatment group. Results were analyzed by ANOVA and Dunnett's post hoc test to compare duration of time on the rotating rod of drug-treated groups to the vehicle controls.

[4] = human, plasma, Cohort 1, 5 mg single IV
[5] = human, plasma, Cohort 2, 15 mg single IV
[6] = human, plasma, Cohort 3, 50 mg single IV
[7] = human, plasma, Cohort 4, 100 mg single IV
[8] = human, plasma, Cohort 5, 150 mg single IV
[9] = human, plasma, Cohort 6, 200 mg single IV

Chain of 5-HT2A (P28223 whole entry): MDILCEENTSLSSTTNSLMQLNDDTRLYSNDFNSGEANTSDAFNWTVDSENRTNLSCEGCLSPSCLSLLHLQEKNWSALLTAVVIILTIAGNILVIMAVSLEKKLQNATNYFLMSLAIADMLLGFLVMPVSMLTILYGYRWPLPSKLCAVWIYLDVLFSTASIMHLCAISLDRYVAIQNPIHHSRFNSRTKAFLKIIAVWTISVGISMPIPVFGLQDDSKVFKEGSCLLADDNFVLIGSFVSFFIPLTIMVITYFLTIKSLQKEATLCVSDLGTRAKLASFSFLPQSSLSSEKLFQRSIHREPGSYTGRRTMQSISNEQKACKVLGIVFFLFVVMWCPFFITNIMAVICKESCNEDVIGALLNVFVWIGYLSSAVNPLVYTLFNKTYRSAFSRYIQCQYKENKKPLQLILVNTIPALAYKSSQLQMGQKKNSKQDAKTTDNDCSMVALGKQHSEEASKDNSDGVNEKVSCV
Chain of 5-HT2B (P41595 whole entry, species assumed): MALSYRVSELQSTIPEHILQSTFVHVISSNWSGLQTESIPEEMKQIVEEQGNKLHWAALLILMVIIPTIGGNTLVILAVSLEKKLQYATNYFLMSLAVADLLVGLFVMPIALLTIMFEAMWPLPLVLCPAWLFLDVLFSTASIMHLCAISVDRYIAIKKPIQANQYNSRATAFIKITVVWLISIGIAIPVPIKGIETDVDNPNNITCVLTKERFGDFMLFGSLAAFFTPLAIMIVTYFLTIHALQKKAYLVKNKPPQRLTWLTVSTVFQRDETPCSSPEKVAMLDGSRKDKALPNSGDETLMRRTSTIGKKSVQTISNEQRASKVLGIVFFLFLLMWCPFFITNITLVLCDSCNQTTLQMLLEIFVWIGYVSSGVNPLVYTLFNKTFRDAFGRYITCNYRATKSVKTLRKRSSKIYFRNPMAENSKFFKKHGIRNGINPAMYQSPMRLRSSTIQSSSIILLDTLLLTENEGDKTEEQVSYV
Chain of 5-HT1D (P28221 whole entry, species assumed): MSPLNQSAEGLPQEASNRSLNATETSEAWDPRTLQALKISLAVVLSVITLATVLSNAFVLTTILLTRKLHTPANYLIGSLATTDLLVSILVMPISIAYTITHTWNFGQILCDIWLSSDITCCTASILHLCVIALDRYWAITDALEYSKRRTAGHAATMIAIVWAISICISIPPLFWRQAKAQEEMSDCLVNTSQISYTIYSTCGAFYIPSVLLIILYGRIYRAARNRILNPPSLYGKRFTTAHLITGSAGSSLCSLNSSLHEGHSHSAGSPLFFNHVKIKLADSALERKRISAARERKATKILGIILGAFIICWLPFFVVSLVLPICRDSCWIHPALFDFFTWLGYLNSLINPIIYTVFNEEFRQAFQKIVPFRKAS
Chain of CYP2D6 (P10635 whole entry, canonical isoform): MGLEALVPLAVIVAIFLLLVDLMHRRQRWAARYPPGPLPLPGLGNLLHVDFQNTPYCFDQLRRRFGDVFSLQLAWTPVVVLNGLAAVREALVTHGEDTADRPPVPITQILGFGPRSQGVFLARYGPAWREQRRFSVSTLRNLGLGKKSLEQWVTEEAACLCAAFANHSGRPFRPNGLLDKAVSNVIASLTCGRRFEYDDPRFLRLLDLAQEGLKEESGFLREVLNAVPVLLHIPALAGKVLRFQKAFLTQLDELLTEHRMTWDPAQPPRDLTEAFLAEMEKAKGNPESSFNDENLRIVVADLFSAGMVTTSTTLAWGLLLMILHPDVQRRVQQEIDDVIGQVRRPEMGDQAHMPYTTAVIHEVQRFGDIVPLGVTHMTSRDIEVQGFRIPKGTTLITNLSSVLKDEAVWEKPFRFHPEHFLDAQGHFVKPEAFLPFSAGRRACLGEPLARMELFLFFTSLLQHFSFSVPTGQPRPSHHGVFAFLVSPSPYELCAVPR
Chain of Alpha2C (P18825 whole entry): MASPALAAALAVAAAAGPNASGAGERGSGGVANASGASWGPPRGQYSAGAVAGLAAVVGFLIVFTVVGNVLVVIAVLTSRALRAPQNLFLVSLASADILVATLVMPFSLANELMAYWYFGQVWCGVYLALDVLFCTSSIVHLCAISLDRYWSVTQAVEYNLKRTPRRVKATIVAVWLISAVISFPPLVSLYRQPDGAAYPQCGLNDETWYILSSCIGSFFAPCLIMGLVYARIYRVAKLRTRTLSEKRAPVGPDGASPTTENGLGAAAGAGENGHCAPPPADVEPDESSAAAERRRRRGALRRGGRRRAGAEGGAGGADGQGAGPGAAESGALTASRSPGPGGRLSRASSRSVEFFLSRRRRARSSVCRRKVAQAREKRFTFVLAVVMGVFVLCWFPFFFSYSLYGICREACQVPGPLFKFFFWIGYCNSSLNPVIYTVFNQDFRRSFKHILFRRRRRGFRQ
Chain of 5-HT1B (P28222 whole entry, species assumed): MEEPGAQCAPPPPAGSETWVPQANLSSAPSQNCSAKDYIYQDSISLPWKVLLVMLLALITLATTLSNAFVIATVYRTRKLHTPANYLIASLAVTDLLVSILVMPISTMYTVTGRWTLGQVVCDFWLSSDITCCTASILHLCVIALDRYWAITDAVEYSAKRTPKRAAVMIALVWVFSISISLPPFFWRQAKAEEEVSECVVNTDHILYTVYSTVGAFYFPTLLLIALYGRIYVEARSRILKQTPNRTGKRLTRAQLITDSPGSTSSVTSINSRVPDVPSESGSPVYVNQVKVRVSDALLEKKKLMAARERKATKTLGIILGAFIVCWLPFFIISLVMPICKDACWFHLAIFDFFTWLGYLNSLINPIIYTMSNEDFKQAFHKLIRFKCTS

Structure (SMILES): O=C1CCc2cc(OC[C@H](O)CN3CCN(c4ccc(C(F)(F)F)cc4)CC3)ccc2N1 [NP10679]
- AUMC(0-T) (ng*h^2/mL) ([1]; Cohort 1, 5 mg single IV): 5794 ng*h^2/mL
- AUMC(0-inf) (ng*h^2/mL) ([1]; Cohort 1, 5 mg single IV): 35856 ng*h^2/mL
- CL ([1]; Cohort 1, 5 mg single IV): 9.82 L/h
- Cmax ([1]; Cohort 1, 5 mg single IV): 26.96 ng/mL
- T1/2* ([1]; Cohort 1, 5 mg single IV, harmonic mean): 27.6 h
- AUMC(0-T) (ng*h^2/mL) ([1]; Cohort 2, 15 mg single IV): 18219 ng*h^2/mL
- AUMC(0-inf) (ng*h^2/mL) ([1]; Cohort 2, 15 mg single IV): 34553 ng*h^2/mL
- AUMC(0-T) (ng*h^2/mL) ([1]; Cohort 3, 50 mg single IV): 61442 ng*h^2/mL
- AUMC(0-inf) (ng*h^2/mL) ([1]; Cohort 3, 50 mg single IV): 114675 ng*h^2/mL
- AUMC(0-T) (ng*h^2/mL) ([1]; Cohort 4, 100 mg single IV): 201642 ng*h^2/mL
- AUMC(0-inf) (ng*h^2/mL) ([1]; Cohort 4, 100 mg single IV): 253651 ng*h^2/mL
- AUMC(0-T) (ng*h^2/mL) ([1]; Cohort 5, 150 mg single IV): 286984 ng*h^2/mL
- AUMC(0-inf) (ng*h^2/mL) ([1]; Cohort 5, 150 mg single IV): 323299 ng*h^2/mL
- AUMC(0-T) (ng*h^2/mL) ([1]; Cohort 6, 200 mg single IV): 407581 ng*h^2/mL
- AUMC(0-inf) (ng*h^2/mL) ([1]; Cohort 6, 200 mg single IV): 459611 ng*h^2/mL
- CL ([1]; Cohort 6, 200 mg single IV): 10.39 L/h
- T1/2* ([1]; Cohort 6, 200 mg single IV, harmonic mean): 17.4 h
- clearance as percent of the hepatic blood flow ([1]; human hepatic blood flow 87 L/h): less than 12%
- half-life ([1]; human, plasma, intravenous, SAD and MAD studies, read-out: half-life (converted)): ~1200 min
- clearance ([1]; human, plasma, iv, 5 mg, Cohort 1, 5 mg single IV): 164 mL/min
- Cmax ([1]; human, plasma, iv, 5 mg, Cohort 1, 5 mg single IV, read-out: Cmax): 30 ± 14.8 ng/mL
- clearance ([1]; human, plasma, iv, 15 mg, Cohort 2, 15 mg single IV): 200 mL/min
- Cmax ([1]; human, plasma, iv, 15 mg, Cohort 2, 15 mg single IV, read-out: Cmax): 99.2 ng/mL
- clearance ([1]; human, plasma, iv, 50 mg, Cohort 3, 50 mg single IV): 183 mL/min
- Cmax ([1]; human, plasma, iv, 50 mg, Cohort 3, 50 mg single IV, read-out: Cmax): 415 ng/mL
- clearance ([1]; human, plasma, iv, 100 mg, Cohort 4, 100 mg single IV): 183 mL/min
- Cmax ([1]; human, plasma, iv, 100 mg, Cohort 4, 100 mg single IV, read-out: Cmax): 746 ng/mL
- clearance ([1]; human, plasma, iv, 150 mg, Cohort 5, 150 mg single IV): 182 mL/min
- Cmax ([1]; human, plasma, iv, 150 mg, Cohort 5, 150 mg single IV, read-out: Cmax): 954 ng/mL
- clearance ([1]; human, plasma, iv, 200 mg, Cohort 6, 200 mg single IV): 173 mL/min
- Cmax ([1]; human, plasma, iv, 200 mg, Cohort 6, 200 mg single IV, read-out: Cmax): 2070 ± 798 ng/mL
- AUC(0-inf) [1, 4]: 533 ng·h/mL
- AUC(0-t) [1, 4]: 335 ng·h/mL
- MRT [1, 4]: 52.9 h
- half-life ([1]; human, plasma, Cohort 1, 5 mg single IV, harmonic mean, read-out: T1/2* (converted)): 1660 ± 720 min
- Vd ([1]; human, plasma, Cohort 1, 5 mg single IV, read-out: Vss): 435 L
- AUC(0-inf) [1, 5]: 1280 ng·h/mL
- AUC(0-t) [1, 5]: 1140 ng·h/mL
- MRT [1, 5]: 26.1 h
- half-life ([1]; human, plasma, Cohort 2, 15 mg single IV, harmonic mean, read-out: T1/2* (converted)): 1220 min
- Vd ([1]; human, plasma, Cohort 2, 15 mg single IV, read-out: Vss): 306 L
- AUC(0-inf) [1, 6]: 4680 ng·h/mL
- AUC(0-t) [1, 6]: 3980 ng·h/mL
- MRT [1, 6]: 23.8 h
- half-life ([1]; human, plasma, Cohort 3, 50 mg single IV, harmonic mean, read-out: T1/2* (converted)): 1070 min
- Vd ([1]; human, plasma, Cohort 3, 50 mg single IV, read-out: Vss): 255 L
- AUC(0-inf) [1, 7]: 9860 ng·h/mL
- AUC(0-t) [1, 7]: 9370 ng·h/mL
- MRT [1, 7]: 24.5 h
- half-life ([1]; human, plasma, Cohort 4, 100 mg single IV, harmonic mean, read-out: T1/2* (converted)): 1190 min
- Vd ([1]; human, plasma, Cohort 4, 100 mg single IV, read-out: Vss): 259 L
- AUC(0-inf) [1, 8]: 13800 ng·h/mL
- AUC(0-t) [1, 8]: 13600 ng·h/mL
- MRT [1, 8]: 23 h
- half-life ([1]; human, plasma, Cohort 5, 150 mg single IV, harmonic mean, read-out: T1/2* (converted)): 1070 min
- Vd ([1]; human, plasma, Cohort 5, 150 mg single IV, read-out: Vss): 250 L
- AUC(0-inf) [1, 9]: 20200 ng·h/mL
- AUC(0-t) [1, 9]: 19700 ng·h/mL
- MRT [1, 9]: 21.9 h
- half-life ([1]; human, plasma, Cohort 6, 200 mg single IV, harmonic mean, read-out: T1/2* (converted)): 1040 ± 168 min
- Vd ([1]; human, plasma, Cohort 6, 200 mg single IV, read-out: Vss): 221 L
- Vd ([1]; human, plasma, single IV 5 to 200 mg, read-out: volume of distribution): > 221 L
- volume of distribution as times of the total body water space ([1]; in vivo): 4.5 times
- functional agonism or antagonism at 5-HT2A (5-HT2A; pH 7.4): behaved as an antagonist
- IC50 (5-HT2A; pH 7.4, antagonism vs 100 nM serotonin): 1.71 µM
- Ki (5-HT1D): 2.29 µM
- bound to mouse plasma proteins [2]: 98.2%
- Ki (Alpha2C): 3.09 µM
- Ki (5-HT2B): 1920 nM
- inhibition of CYP2D6 (CYP2D6): did not inhibit
- Ki (5-HT1B): > 10 µM
- rotarod impairment ([3]; 2 mg/kg IP): no significant impairment
- rotarod impairment ([3]; 5 mg/kg IP): no significant impairment
- latency to fall ([3]; 10 mg/kg IP, fourth trial): 87 ± 13 s
- latency to fall, change from the vehicle control ([3]; 10 mg/kg IP, trials 1, 2, or 3): no statistically significant change
